Assay results taken from ChEMBL document CHEMBL1133877, “2-Amino-4,6-diarylpyridines as novel ligands for the estrogen receptor” (Bioorg Med Chem Lett, 2001).

Tests used:
[1] = target: T1, Estrogen receptor beta (Homo sapiens, UniProt Q92731)
[2] = target: T2, Estrogen receptor (Homo sapiens, UniProt P03372)
T2 sequence (P03372 whole entry): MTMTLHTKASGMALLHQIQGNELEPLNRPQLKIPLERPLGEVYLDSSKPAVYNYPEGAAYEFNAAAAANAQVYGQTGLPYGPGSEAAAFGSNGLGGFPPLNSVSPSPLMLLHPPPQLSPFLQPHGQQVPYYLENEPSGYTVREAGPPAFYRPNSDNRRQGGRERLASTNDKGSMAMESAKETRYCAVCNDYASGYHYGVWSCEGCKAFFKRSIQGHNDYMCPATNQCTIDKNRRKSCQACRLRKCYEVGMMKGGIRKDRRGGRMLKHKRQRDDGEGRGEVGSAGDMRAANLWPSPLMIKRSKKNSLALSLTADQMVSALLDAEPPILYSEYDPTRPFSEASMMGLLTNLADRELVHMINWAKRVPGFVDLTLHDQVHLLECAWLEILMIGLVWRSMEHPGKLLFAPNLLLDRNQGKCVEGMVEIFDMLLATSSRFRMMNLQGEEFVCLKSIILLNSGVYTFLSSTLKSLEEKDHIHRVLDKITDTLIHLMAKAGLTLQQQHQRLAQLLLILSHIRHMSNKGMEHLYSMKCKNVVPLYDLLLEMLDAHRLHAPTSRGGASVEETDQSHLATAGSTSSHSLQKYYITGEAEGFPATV

[3] = target: T1, Estrogen receptor beta; experiment: Displacement of [3H]17-beta-estradiol from Estrogen receptor beta of bacterial lysate by scintillation proximity assay (SPA) at 10e-5 M; Inactive
[4] = target: T2, Estrogen receptor; experiment: Displacement of [3H]17-beta-estradiol from Estrogen receptor alpha of bacterial lysate by scintillation proximity assay (SPA) at 10e-5 M; Inactive

T1 sequence (Q92731 whole entry): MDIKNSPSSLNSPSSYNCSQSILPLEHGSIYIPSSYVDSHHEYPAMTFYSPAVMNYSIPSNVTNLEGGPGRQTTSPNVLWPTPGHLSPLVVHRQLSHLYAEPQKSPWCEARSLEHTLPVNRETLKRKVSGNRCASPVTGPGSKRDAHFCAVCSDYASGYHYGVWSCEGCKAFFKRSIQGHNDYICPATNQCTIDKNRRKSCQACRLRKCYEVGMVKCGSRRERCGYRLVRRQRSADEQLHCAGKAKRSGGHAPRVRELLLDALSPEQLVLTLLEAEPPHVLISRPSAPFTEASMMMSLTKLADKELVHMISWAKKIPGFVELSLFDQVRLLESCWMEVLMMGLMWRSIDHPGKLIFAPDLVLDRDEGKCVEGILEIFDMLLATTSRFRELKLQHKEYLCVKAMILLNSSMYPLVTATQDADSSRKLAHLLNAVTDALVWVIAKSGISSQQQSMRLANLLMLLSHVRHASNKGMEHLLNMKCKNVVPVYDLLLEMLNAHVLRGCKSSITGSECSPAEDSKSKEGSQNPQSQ

Row | SMILES | Ki [1] [nM] | Ki [2] [nM] | Ki [3] | Ki [4]
1 | Cc1cc(-c2cc(-c3ccccc3)cc(N(C)CC(C)C)n2)ccc1O | 660 | 210 |  | 
2 | Cc1ccccc1-c1cc(-c2ccc(O)cc2)nc(N(C)CCc2ccccc2)c1 | 1100 | 650 |  | 
3 | Cc1cc(-c2cc(-c3ccccc3)cc(N(CCc3ccccc3)Cc3ccccc3)n2)ccc1O | 250 | 130 |  | 
4 | CCCCN(C)c1cc(-c2ccccc2)cc(-c2ccc(O)c(C)c2)n1 | 790 | 660 |  | 
5 | CCCN(Cc1ccccn1)c1cc(-c2ccccc2)cc(-c2ccc(O)c(C)c2)n1 | 330 | 70 |  | 
6 | Cc1cc(-c2cc(-c3ccccc3)cc(N(C)CCc3ccccc3)n2)ccc1O | 680 | 160 |  | 
7 | Cc1cc(-c2cc(-c3ccccc3)cc(N(C)CCN(C)C)n2)ccc1O |  |  | Not Active | Not Active
8 | Cc1cc(-c2cc(-c3ccccc3)cc(N3CCCC3)n2)ccc1O |  |  | Not Active | Not Active
9 | Cc1cc(-c2cc(-c3ccccc3)cc(N(C)Cc3ccccc3)n2)ccc1O | 1120 | 380 |  | 
10 | CCCN(Cc1ccccn1)c1cc(-c2ccccc2)cc(-c2ccc(O)cc2C)n1 |  |  | Not Active | Not Active
11 | Cc1cc(-c2cc(-c3ccccc3)cc(N3CCC(Cc4ccccc4)CC3)n2)ccc1O | 110 | 20 |  | 
12 | CCCN(Cc1ccccn1)c1cc(-c2ccccc2)cc(-c2ccc(O)cc2)n1 | 710 | 180 |  | 
13 | CCN(Cc1ccncc1)c1cc(-c2ccccc2)cc(-c2ccc(O)c(C)c2)n1 | 1000 | 830 |  | 
14 | Cc1cc(-c2cc(-c3ccccc3)cc(N(C)Cc3cccc4ccccc34)n2)ccc1O | 1410 | 450 |  | 
15 | Cc1cc(-c2cc(-c3ccccc3)cc(N(C)CCc3ccccn3)n2)ccc1O | > 3000 | 1260 |  | 
16 | CN(CCc1ccccc1)c1cc(-c2ccccc2)cc(-c2ccc(O)cc2)n1 | 1050 | 490 |  | 
17 | CN(CCc1ccccc1)c1cc(-c2ccc(O)cc2)cc(-c2ccc(O)cc2)n1 | > 3000 | > 3000 |  | 
18 | CCOCCN(CCOCC)c1cc(-c2ccccc2)cc(-c2ccc(O)c(C)c2)n1 | 1170 | 2000 |  | 
19 | CC(C)CN(C)c1cc(-c2ccccc2)cc(-c2ccc(O)cc2)n1 | 1260 | 620 |  | 
